In US5846545A, “Targeted delivery of cyclopropylbenzindole-containing cytotoxic drugs” (Immunogen, Inc., priority 1995, dated 1998):

How the values were obtained:
[1] = tested on: human small cell lung cancer cell line SW2; assay: In vitro cytotoxicity to SW2 cells, 24 h exposure, growth back-extrapolation assay; assay type: cell-based; details: 24 h exposure to the drug, read-out: IC50, free drug, SW2 cells
Description: Disulfide-containing and mercapto-containing analogues and derivatives of CC-1065 of the invention can be evaluated for their ability to suppress proliferation of various unwanted cell lines in vitro. For example, cell lines such as the human epidermoid carcinoma line KB, the human breast tumor line SKBR3, and the Burkitt's lymphoma line Namalwa can easily be used for the assessment of cytotoxicity of these compounds. Cells to be evaluated can be exposed to the compounds for 24 hours and the surviving fractions of cells measured in direct assays by known methods. IC50 values can then be calculated from the results of the assays.
Cytotoxicity of the analogues and derivatives of CC-1065 and their conjugates with cell binding agents to non-adherent cell lines such as Namalwa and SW2 can be measured by back-extrapolation of cell proliferation curves as described in Goldmacher et al, 135 J. Immunol. […] Cytotoxicity of these compounds to adherent cell lines such as A-375 and SCaBER can be determined by clonogenic assays as described in Goldmacher et al, 102 J. Cell Biol. 1312-1319 (1986). […]
In vitro cytotoxicity of N901-SS-Drug 7. The in vitro cytotoxicity of a disulfide-linked conjugate of the mono-indolyl CPI derivative 7 with the antibody N901, containing on the average 3.3 drug molecules per antibody molecule, was measured on antigen positive SW2 cells and antigen negative Namalwa cells. […]

[2] = single i.v. dose of 12.5 μg/kg; cited from earlier work
[3] = in vitro; cited from earlier work
[4] = tested on: P388 leukemia; details: cited from earlier work

| SMILES | IC50 [1] [nM] | delayed hepatotoxicity leading to death, time of death [2] [days] | fold more cytotoxic than methotrexate, daunorubicin and vincristine [3] [fold] | treated mice surviving beyond 30 days ([4]; 0.05 mg/kg i.p. on days 1, 5 and 9) | increase in life span over untreated controls ([4]; optimal dose 0.05 mg/kg i.p. on days 1, 5 and 9) [%] |
| --- | --- | --- | --- | --- | --- |
| COc1c(O)c2c(c3cc(C(=O)N4CCc5c4c(O)c(OC)c4[nH]c(C(=O)N6CC7CC78C6=CC(=O)c6[nH]cc(C)c68)cc54)[nH]c13)CCN2C(N)=O (centres unmarked) [CC-1065] | 0.2 | 50 | 100 to 1000 |  |  |
| Cc1c[nH]c2c1[C@@]13C[C@@H]1CN(C(=O)c1cc4cc(NC(=O)c5cc6ccccc6o5)ccc4[nH]1)C3=CC2=O [U-73975] |  |  |  | 1 out of 6 | 170 |
